# Test results: US20110027251A1, “NOVEL USES FOR 4-PHENYLBUTYRATE (4PBA) AND ITS PHARMACEUTICALLY ACCEPTABLE SALTS” (priority 2008, published 2011)
# What was measured:
# Format in all cases: in vivo
# [1] = tested on: GluR1 subunit of the AMPA receptor; test: Western blot of GluR1 in membrane enriched hippocampal protein extracts; conditions: Tg2576 mice, 200 mg/kg i.p. 5 weeks, vehicle 81.18±9.5%, non-transgenic 100.0±6.5% (FIG. 6)
# Text: (§1) We used Tg2576 transgenic mice with Alzheimer's Disease expressing the 695-aa human APP isoform which contains the double APPswe Swedish mutation [(APP695) Lys670→Asn, Met671→Leu] triggered by a […] hamster promoter. In the Tg2576 transgenic mice suffering from Alzheimer's disease used in the experimental murine model, the Aβ peptide content in the brain accumulates exponentially between their 7th and 12th months of life. […] Therefore 16 months old Tg2576 transgenic mice females were treated once a day intraperitoneally with 200 mg/kg 4PBA or its vehicle during 5 weeks. […]
# (§2) NaF) spun at 14,000×g, 4° C. for 20 min and the aliquots obtained from the supernatant were then freeze-dried at −80° C. […] Protein concentration was determined in both cases (using the Bradford test from Bio-Rad) and the aliquots stored at −80° C. until further use. […]
# (§3) To carry out the Western Blot analyses, protein samples were mixed in buffers having the same volumes (2×Laemmli) resolved in SDS-polyacrylamide gels and transferred to a nitrocellulose membrane. […] After two washings in PBS/Tween-20 or TBS/Tween20 and one washing in PBS or TBS, immunolabelled protein bands were detected using an anti-rabbit or anti-mouse HRP conjugate (Santa Cruz, 1:5000 dilution) followed by a chemiluminescence system (ECL Amersham Biosciences), and autoradiographic exposure to HyperfilmTMECL (Amersham Biosciences). […]
# [2] = tested on: GRP78; test: Western blot of GRP78 in hippocampus; conditions: Tg2576 mice, 200 mg/kg i.p. 5 weeks; compared with non-transgenic mice (FIG. 4)
# Text: as §1, §2, §3
# [3] = tested on: Aβ42; test: Aβ42 level in cerebral cortex, sandwich ELISA; conditions: Tg2576 mice, 200 mg/kg i.p. 5 weeks; compared with vehicle-treated transgenic mice (FIG. 2A)
# Text: as §1, with “weeks. To do this a 4PBA solution was prepared titrating equimolecular amounts of 4-phenylbutyric acid (Sigma) and sodium hydroxide at a pH: 7.4.” for “weeks.”
# (§4) Mice were sacrificed 24 hours after performing the last test in the Morris water maze. […] Then the levels of Aβ40 and Aβ42 in the cerebral cortex were analyzed by a sandwich type ELISA test.
# (§5) The cerebral cortexes were homogenized in a buffer containing 5 M guanidine HCl and 50 mM Tris HCl at a pH=8, protease inhibitors (Roche's CompleteTM Protease Inhibitor Cocktail), and phosphatase inhibitors (0.1 mM Na3VO4, 1 mM NaF). […] Aliquots of the supernatant were freeze-dried at −80° C. and the protein concentration determined using the Bradford method with the Bio-Rad kit. Aβ42 levels were measured with an extra sensitive sandwich-type ELISA kit from Biosource (Camarillo, Calif., USA). […]
# [4] = tested on: histone 4 (H4); test: Western blot of acetylated histone 4 in cortex; conditions: Tg2576 mice, 200 mg/kg i.p. 5 weeks; cortex extracts (FIG. 5)
# Text: as §1, with “weeks. To do this a 4PBA solution was prepared titrating equimolecular amounts of 4-phenylbutyric acid (Sigma) and sodium hydroxide at a pH: 7.4.” for “weeks.”
# To carry out the Western Blot analyses, protein samples were mixed in buffers having the same volumes (2×Laemmli) resolved in SDS-polyacrylamide gels and transferred to a nitrocellulose membrane. […] After two washings in PBS/Tween-20 or TBS/Tween20 and one washing in PBS or TBS, immunolabelled protein bands were detected using an anti-rabbit or anti-mouse HRP conjugate (Santa Cruz, 1:5000 dilution) followed by a chemiluminescence system (ECL Amersham Biosciences), and autoradiographic exposure to HyperfilmTMECL (Amersham Biosciences). The signals were quantified using the Scion Image program (Scion Corporation).
# [5] = tested on: tau phosphorylated at Ser-202/Thr-205 (AT8); test: Western blot of phosphorylated tau (AT8) in hippocampus; conditions: Tg2576 mice, 200 mg/kg i.p. 5 weeks; compared with non-transgenic mice (FIG. 3A)
# Text: as §1, §2, §3
# [6] = tested on: Tg2576 transgenic mice; test: Morris water maze (spatial learning and memory)
# Text: We used Tg2576 transgenic mice with Alzheimer's Disease expressing the 695-aa human APP isoform which contains the double APPswe Swedish mutation [(APP695) Lys670→Asn, Met671→Leu] triggered by a […] hamster promoter. In the Tg2576 transgenic mice suffering from Alzheimer's disease used in the experimental murine model, the Aβ peptide content in the brain accumulates exponentially between their 7th and 12th months of life. […] Therefore 16 months old Tg2576 transgenic mice females were treated once a day intraperitoneally with 200 mg/kg 4PBA or its vehicle during 5 weeks. To do this a 4PBA solution was prepared titrating equimolecular amounts of 4-phenylbutyric acid (Sigma) and sodium hydroxide at a pH: 7.4. A group of normal mice, not genetically altered, from same similar strains and ages was used as control group. All the clinical test procedures were performed according to the European and the Spanish legislation (86/609/CEE; RD 1201/2005).
# The Morris water maze was used to evaluate the operational and reference memory functions in Tg2576 transgenic mice treated with 4 PBA as described previously in the literature (Ribe et al., 2005). Groups of Tg2576 female mice treated with 4PBA (n=6), vehicle (n=7), and non-transgenic litter siblings (n=10) were subjected to spatial learning and memory tests using the Morris water maze when they became 16 months old. The maze consisted of a circular pool filled with water at 20° C. The mice received prior training in a pool with a visible platform during 3 consecutive days (8 tests per day) being able to swim towards a platform raised above the water level. The training with hidden platform took 9 consecutive days (4 tests per day) during which all mice were allowed 60 seconds to find the platform submerged 1cm below the water surface. […] All the trials were monitored with a VHS camera and the Watermaze software to analyze escape latencies and the percentage of time of occupation of each pool quadrant during prior tests (using the Ethovision software, Wageninge, Netherlands). […]
# [7] = tested on: PSD95; test: Western blot of PSD95 in membrane enriched hippocampal protein extracts; conditions: Tg2576 mice, 200 mg/kg i.p. 5 weeks; membrane enriched hippocampal extracts (FIG. 6)
# Text: as §1, §2, §3
# [8] = tested on: Aβ40; test: Aβ40 level in cerebral cortex, sandwich ELISA; conditions: Tg2576 mice, 200 mg/kg i.p. 5 weeks; compared with vehicle-treated transgenic mice (FIG. 2A)
# Text: as §1, with “weeks. To do this a 4PBA solution was prepared titrating equimolecular amounts of 4-phenylbutyric acid (Sigma) and sodium hydroxide at a pH: 7.4.” for “weeks.”
# as §4, §5
# [9] = tested on: GSK3b phosphorylated at Ser 9; test: Western blot of inactive GSK3b phosphorylated at Ser 9 in hippocampus; conditions: Tg2576 mice, 200 mg/kg i.p. 5 weeks; compared with vehicle-treated transgenic mice (FIG. 3B)
# Text: as §1, §2, §3
# [10] = tested on: MAP-2; test: Quantitative western blot of MAP-2 in hippocampal extracts; conditions: Tg2576 mice, 200 mg/kg i.p. 5 weeks; untreated Tg2576 54.9±10.7, non-transgenic 100.0±14.9 (FIG. 6)
# Text: as §1, §2, §3
smiles,measurement,setting,value
"O=C([O-])CCCc1ccccc1.[Na+] [4PBA, 4-phenylbutyric acid]",expression levels of the GluR1 subunit of the AMPA receptor,[1],161.37±27.5%
same,GRP78 levels in hippocampus,[2],did not differ
same,Aβ42 levels in cerebral cortex,[3],no difference was observed
same,acetylation of cortical histone 4 (H4),[4],induction of acetylation
same,phosphorylated tau at the AT8 site in hippocampus,[5],no differences were found
same,"proficiency in Morris water maze, invisible platform (escape latency)","[6]; 16 month old Tg2576 female mice, 200 mg/kg i.p. once a day for 5 weeks, compared with non-transgenic control mice of same age (FIG. 1B)",did not differ
same,"escape latencies, visible platform training","[6]; Tg2576 mice, 200 mg/kg i.p. 5 weeks, first training tests with visible platform (FIG. 1A)",did not differ significantly
same,percentage of time spent in the target quadrant (memory retention),"[6]; Tg2576 mice, 200 mg/kg i.p. 5 weeks, platform removed, compared with control group of same age (FIG. 1C)",did not differ
same,expression of PSD95 levels,[7],induced significantly
same,Aβ40 levels in cerebral cortex,[8],no difference was observed
same,levels of inactive GSK3b phosphorylated at Ser 9 in hippocampus,[9],higher
same,MAP-2 expression levels,[10],77.7±11.6
